Like-named read-outs stand apart in the source and are kept apart here.
Experiments:
[1] = thermogravimetric analysis; format: physicochemical; conditions: ramp 20 to 400° C., 10° C./min, 30 mL/min helium
Protocol: A thermogravimetric analysis of 1,3,5-trimethylborazine was carried out over a temperature ramp of 20 to 400° C., with a rise of 10° C./min under 30 mL/min of helium.
Curve 2 from FIG. 2A plotted as a lighter line represents the loss in mass of the sample as a function of the temperature. The final value of the residue level of 3.2% indicates a high purity and good thermal stability of 1,3,5-trimethylborazine. This residue level is reached at 165° C.
Thermogravimetric analysis of tri-butylborane was carried out over a temperature ramp of 20 to 400° C., with a rise of 10° C./min under 30 mL/min of helium.
Curve 2 from FIG. 4 plotted as a lighter line represents the loss in mass of the sample as a function of the temperature.

[2] = vapour pressure measurement (Clausius-Clapeyron diagram); format: physicochemical
Protocol: The curve plotted in FIG. 2B represents the Clausius-Clapeyron diagram of the 1,3,5-trimethylborazine molecule, namely its vapour pressure measurement. 1,3,5-trimethylborazine has a vapour pressure of 40 Torr at 50° C. and greater than 200 Torr at 100° C., indicating a good volatility.

[3] = system: rat; conditions: cited from earlier work

| Structure (SMILES) | final value of the residue level (thermal stability) [1] [%] | vapour pressure ([2]; at 50° C.) [Torr] | vapour pressure ([2]; at 100° C.) | toxicity qualification with reference to LD50 oral, rat ([3]; in vivo, po) | toxicity qualification with reference to LD50 oral, rat ([3]; oral) |
| --- | --- | --- | --- | --- | --- |
| CN1BN(C)BN(C)B1 [1,3,5-trimethylborazine] | 3.2 | 40 | greater than 200 Torr | slightly toxic to almost non-toxic |  |
| B.B [diborane] |  |  |  |  | lethal |
| CCCCB(CCCC)CCCC [tri-n-butylborane] | 0.6 |  |  |  |  |
| CB(C)C [trimethylborane] |  |  |  |  | very toxic |
